In patent US9994551B2, “Pyridazine derivatives as RORc modulators” (Genentech, Inc., priority 2015, dated 2018):

Each compound was assayed against T1, RORc ligand binding domain (Homo sapiens, UniProt P51449) (assay: In vitro RORc ligand binding assay (25-[3H]hydroxycholesterol displacement, filter binding)).
T1 construct: host or cells: E. coli
T1 sequence (P51449 269-508 limits assumed): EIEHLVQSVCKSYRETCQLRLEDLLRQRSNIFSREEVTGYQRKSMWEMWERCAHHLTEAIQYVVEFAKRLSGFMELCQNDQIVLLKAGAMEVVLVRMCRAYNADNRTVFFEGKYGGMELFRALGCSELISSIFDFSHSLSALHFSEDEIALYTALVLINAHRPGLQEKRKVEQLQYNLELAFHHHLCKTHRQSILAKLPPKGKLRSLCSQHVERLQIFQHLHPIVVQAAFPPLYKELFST

| Compound | IC50 [nM] |
| --- | --- |
| CC[C@@H](O[C@@]12CC[C@@H](c3cc(-c4c(F)cccc4F)nnc31)C2(C)C)C(=O)NCC1(O)COC1 [Compound 57, (R)-2-(((5S,8R)-3-(2,6-difluorophenyl)-9,9-dimethyl-5,6,7,8-tetrahydro-5,8-methanocinnolin-8-yl)oxy)-N-((3-hydroxyoxetan-3-yl)methyl)butanamide] | 44.5 |
| Cc1n[nH]c(N2CCO[C@@H]([C@@]34CC[C@@H](c5cc(-c6c(F)cccc6F)nnc53)C4(C)C)C2)n1 (single isomer, unassigned) [Compound 147, 2-[5-(2,6-difluorophenyl)-11,11-dimethyl-3,4-diazatricyclo[6.2.1.02,7]undeca-2,4,6-trien-1-yl]-4-(3-methyl-1H-1,2,4-triazol-5-yl)morpholine] | 16 |
| CC1(C)[C@H]2CC[C@]1([C@H]1CN(CC(F)F)CCO1)c1nnc(-c3c(F)cccc3F)cc12 [Compound 80, (S)-4-(2,2-difluoroethyl)-2-((5R,8R)-3-(2,6-difluorophenyl)-9,9-dimethyl-5,6,7,8-tetrahydro-5,8-methanocinnolin-8-yl)morpholine] | 674 |
| CNC(=O)c1cncc(O[C@@]23CC[C@@H](c4cc(-c5c(F)cccc5F)nnc42)C3(C)C)n1 [Compound 29, 6-(((5S,8R)-3-(2,6-difluorophenyl)-9,9-dimethyl-5,6,7,8-tetrahydro-5,8-methanocinnolin-8-yl)oxy)-N-methylpyrazine-2-carboxamide] | 385 |
| Cc1n[nH]c(C(=O)N2CCC[C@H]([C@@]34CC[C@@H](c5cc(-c6c(F)cccc6F)nnc53)C4(C)C)C2)n1 [Compound 129, [3-[5-(2,6-difluorophenyl)-11,11-dimethyl-3,4-diazatricyclo[6.2.1.02,7]undeca-2,4,6-trien-1-yl]-1-piperidyl]-(3-methyl-1H-1,2,4-triazol-5-yl)methanone] | 83 |
| Cc1nc(N2CCO[C@H]([C@@]34CC[C@@H](c5cc(-c6c(F)cccc6F)nnc53)C4(C)C)C2)n(Cc2ccccc2)n1 [Compound 143, 4-(2-benzyl-5-methyl-1,2,4-triazol-3-yl)-2-[5-(2,6-difluorophenyl)-11,11-dimethyl-3,4-diazatricyclo[6.2.1.02,7]undeca-2,4,6-trien-1-yl]morpholine] | 5.6 |
| COC(=O)N1CCO[C@@H]([C@@]23CC[C@@H](c4cc(-c5c(F)cccc5F)nnc42)C3(C)C)C1 [Compound 87, (S)-methyl 2-((5R,8R)-3-(2,6-difluorophenyl)-9,9-dimethyl-5,6,7,8-tetrahydro-5,8-methanocinnolin-8-yl)morpholine-4-carboxylate] | 36.8 |
| CCOC(=O)c1coc(N2CCO[C@@H]([C@@]34CC[C@@H](c5cc(-c6c(F)cccc6F)nnc53)C4(C)C)C2)n1 [Compound 127, ethyl 2-[2-[5-(2,6-difluorophenyl)-11,11-dimethyl-3,4-diazatricyclo[6.2.1.02,7]undeca-2,4,6-trien-1-yl]morpholin-4-yl]oxazole-4-carboxylate] | 5 |
| CC1(C)[C@H]2CC[C@]1([C@H]1CCCN(C(=O)NCC3(O)COC3)C1)c1nnc(-c3c(F)cccc3F)cc12 (stereo in doubt) [Compound 153, 3-[5-(2,6-difluorophenyl)-11,11-dimethyl-3,4-diazatricyclo[6.2.1.02,7]undeca-2,4,6-trien-1-yl]-N-[(3-hydroxyoxetan-3-yl)methyl]piperidine-1-carboxamide] | 110 |
| CC1(C)[C@H]2CC[C@]1([C@@H]1CN(C(=O)C(O)CO)CCO1)c1nnc(-c3c(F)cccc3F)cc12 (stereo partly drawn) [Compound 78, 1-((R)-2-((5R,8R)-3-(2,6-difluorophenyl)-9,9-dimethyl-5,6,7,8-tetrahydro-5,8-methanocinnolin-8-yl)morpholino)-2,3-dihydroxypropan-1-one] | 213 |
| CC[C@H](C[C@@]12CC[C@@H](c3cc(-c4c(F)cccc4F)nnc31)C2(C)C)C(N)=O [Compound 4, (R)-2-(((5R,8R)-3-(2,6-difluorophenyl)-9,9-dimethyl-5,6,7,8-tetrahydro-5,8-methanocinnolin-8-yl)methyl)butanamide] | 82.4 |
| CC1(C)[C@H]2CC[C@]1([C@H]1CNCCO1)c1nnc(-c3c(F)cccc3F)cc12 [Compound 70, (S)-2-((5R,8R)-3-(2,6-difluorophenyl)-9,9-dimethyl-5,6,7,8-tetrahydro-5,8-methanocinnolin-8-yl)morpholine] | 367 |
| CC(=O)N1CCO[C@H]([C@@]23CC[C@@H](c4cc(-c5c(F)cccc5F)nnc42)C3(C)C)C1 [Compound 64, 1-((R)-2-((5R,8R)-3-(2,6-difluorophenyl)-9,9-dimethyl-5,6,7,8-tetrahydro-5,8-methanocinnolin-8-yl)morpholino)ethanone] | 308 |
| CCNC(=O)[C@H](CC)O[C@@]12CC[C@@H](c3cc(-c4c(F)cccc4F)nnc31)C2(C)C [Compound 19, (S)-2-(((5S,8R)-3-(2,6-difluorophenyl)-9,9-dimethyl-5,6,7,8-tetrahydro-5,8-methanocinnolin-8-yl)oxy)-N-ethylbutanamide] | 34.7 |
| CC1(C)[C@H]2CC[C@]1(Oc1cccnn1)c1nnc(-c3c(F)cccc3F)cc12 [Compound 16, (5S,8R)-3-(2,6-difluorophenyl)-9,9-dimethyl-8-(pyridazin-3-yloxy)-5,6,7,8-tetrahydro-5,8-methanocinnoline] | 254 |
| CN1CCN(C)[C@H]([C@@]23CC[C@@H](c4cc(-c5c(F)cccc5F)nnc42)C3(C)C)C1 [Compound 180, 5-(2,6-difluorophenyl)-1-(1,4-dimethylpiperazin-2-yl)-11,11-dimethyl-3,4-diazatricyclo[6.2.1.02,7]undeca-2,4,6-triene] | 16 |
| CC(CO)NC(=O)N1CCO[C@H]([C@@]23CC[C@@H](c4cc(-c5c(F)cccc5F)nnc42)C3(C)C)C1 (stereo in doubt) [Compound 141, 2-[5-(2,6-difluorophenyl)-11,11-dimethyl-3,4-diazatricyclo[6.2.1.02,7]undeca-2,4,6-trien-1-yl]-N-(2-hydroxy-1-methyl-ethyl)morpholine-4-carboxamide] | 9.5 |

The remaining lines, values ahead:

| IC50 [nM] | Compound |
| --- | --- |
| 37 | CC1(C)[C@H]2CC[C@]1([C@H]1CN(c3nc(CO)co3)CCO1)c1nnc(-c3c(F)cccc3F)cc12 [Compound 128, [2-[2-[5-(2,6-difluorophenyl)-11,11-dimethyl-3,4-diazatricyclo[6.2.1.02,7]undeca-2,4,6-trien-1-yl]morpholin-4-yl]oxazol-4-yl]methanol] |
| 42.5 | CC1(C)[C@H]2CC[C@]1(Oc1ccccn1)c1nnc(-c3c(F)cccc3F)cc12 [Compound 12, (5S,8R)-3-(2,6-difluorophenyl)-9,9-dimethyl-8-(pyridin-2-yloxy)-5,6,7,8-tetrahydro-5,8-methanocinnoline] |
| 15 | CC(=O)N1CCN(C)[C@H]([C@@]23CC[C@@H](c4cc(-c5c(F)cccc5F)nnc42)C3(C)C)C1 [Compound 177, 1-[3-[5-(2,6-difluorophenyl)-11,11-dimethyl-3,4-diazatricyclo[6.2.1.02,7]undeca-2,4,6-trien-1-yl]-4-methyl-piperazin-1-yl]ethanone] |
| 420 | CC(C)(C)OC(=O)N1CCN[C@H]([C@@]23CC[C@@H](c4cc(-c5c(F)cccc5F)nnc42)C3(C)C)C1 (single isomer, unassigned) [Compound 114, tert-butyl 3-[5-(2,6-difluorophenyl)-11,11-dimethyl-3,4-diazatricyclo[6.2.1.02,7]undeca-2,4,6-trien-1-yl]piperazine-1-carboxylate] |
| 13 | Cc1n[nH]c(C(=O)N2CCO[C@@H]([C@@]34CC[C@@H](c5cc(-c6c(F)cccc6F)nnc53)C4(C)C)C2)n1 [Compound 117, [2-[5-(2,6-difluorophenyl)-11,11-dimethyl-3,4-diazatricyclo[6.2.1.02,7]undeca-2,4,6-trien-1-yl]morpholin-4-yl]-(3-methyl-1H-1,2,4-triazol-5-yl)methanone] |
| 8.2 | CC1(C)[C@H]2CC[C@]1([C@H]1CCCN(C(=O)NC3CCC3)C1)c1nnc(-c3c(F)cccc3F)cc12 [Compound 149, N-cyclobutyl-3-[5-(2,6-difluorophenyl)-11,11-dimethyl-3,4-diazatricyclo[6.2.1.02,7]undeca-2,4,6-trien-1-yl]piperidine-1-carboxamide] |
| 61.5 | CC[C@@H](O[C@@]12CC[C@@H](c3cc(-c4c(F)cccc4F)nnc31)C2(C)C)C(=O)NC[C@H](C)O [Compound 51, (R)-2-(((5S,8R)-3-(2,6-difluorophenyl)-9,9-dimethyl-5,6,7,8-tetrahydro-5,8-methanocinnolin-8-yl)oxy)-N-((S)-2-hydroxypropyl)butanamide] |
| 72.2 | CNC(=O)c1nccnc1O[C@@]12CC[C@@H](c3cc(-c4c(F)cccc4F)nnc31)C2(C)C [Compound 15, 3-(((5S,8R)-3-(2,6-difluorophenyl)-9,9-dimethyl-5,6,7,8-tetrahydro-5,8-methanocinnolin-8-yl)oxy)-N-methylpyrazine-2-carboxamide] |
| 95.2 | CC[C@@H](O[C@@]12CC[C@@H](c3cc(-c4c(F)cccc4F)nnc31)C2(C)C)C(=O)NCc1n[nH]c(=O)[nH]1 [Compound 56, (R)-2-(((5S,8R)-3-(2,6-difluorophenyl)-9,9-dimethyl-5,6,7,8-tetrahydro-5,8-methanocinnolin-8-yl)oxy)-N-((5-oxo-4,5-dihydro-1H-1,2,4-triazol-3-yl)methyl)butanamide] |
| 34 | CC1(C)[C@H]2CC[C@]1([C@H]1CN(c3ncn[nH]3)CCO1)c1nnc(-c3c(F)cccc3F)cc12 [Compound 144, 2-[5-(2,6-difluorophenyl)-11,11-dimethyl-3,4-diazatricyclo[6.2.1.02,7]undeca-2,4,6-trien-1-yl]-4-(1H-1,2,4-triazol-5-yl)morpholine] |
